Among the data in patent US20170152239A1, “BENZAMIDE AND HETEROBENZAMIDE COMPOUNDS” (PFIZER INC., priority 2012, published 2017) are IC50 values, retold here.

The target of assay [1] is WT EZH2 (EZH2 4 protein complex: EZH2, EED, SUZ12, RbAp48) (Homo sapiens, UniProt O75530+Q09028+Q15022+Q15910). Nature of the assay: WT EZH2 nucleosome assay. The class given is biochemical. The gist of the method: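 Radiometric methyltransferase assay: 5 nM EZH2 four-protein complex, 1.5 μM 3H-SAM, 25 μg/mL HeLa oligonucleosomes, 50 nM recombinant H1 in 100 mM Tris pH 8.5, 4 mM DTT, 0.01% Tween-20. 60 min reaction, TCA quench, filter capture, scintillation counting; IC50 from 11-point 4-parameter fit; % effect at 20 μM.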

In assay [2] the target is EZH2PRC2 mutant Y641N (Homo sapiens, UniProt Q15910, Y641N). In words: EZH2PRC2 mutant Y641N nucleosome assay. The class given is biochemical. Conditions: read-out: EZH2PCR2 Mutant Y641N IC50. The method, then:
Nucleosome Assay Protocol:
A. Compound preparation • 1. Prepare 10 mM stock solutions in 100% DMSO from solid material • 2. Serial dilute 10 mM compound stocks either 2 or 3-fold in 100% DMSO to generate compounds for 11 point dose response
B. Reagent preparation • 1. Prepare 1× assay buffer containing 100 mM Tris pH 8.5, 4 mM DTT and 0.01% Tween-20 • 2. Dilute purified HeLA oligonucleosomes and recombinant histone H1 (New England Biolabs) in assay buffer to 1.67×. • 3. Dilute EZH2 4 protein complex (EZH2, EED, SUZ12, RbAp48) to 3.5× in assay buffer • 4. Prepare 10×^3H SAM solution in assay buffer using 0.94 μCi/well of radioactive SAM (Perkin Elmer) and sufficient non-labeled SAM (Sigma) for 1.5 μM final concentration. • 5. Dilute TCA to 20% in DI water
C. Enzyme reaction • 1. Final reaction conditions are 5 nM EZH2 4-protein complex, 1.5 μM SAM, 25 μg/mL oligonucleosomes, 50 nM rH1 in a 50 μl reaction volume. • 2. Add 1 μl of diluted compound to the assay plate (96-well V-bottom polypropylene plates) or 1 μl of DMSO for control wells. • 3. Add 30 μl of nucleosomes to the assay plate • 4. Add 14 μl of EZH2 4 protein complex to the assay plate • 5. Add 5 μl of ^3H SAM to start the reaction. • 6. Stop the reaction after 60 minutes with the addition of 100 μl of 20% TCA • 7. Transfer 150 μl of quenched reaction into a prepared filterplate (Millipore #MSIPN4B10) • 8. Apply vacuum to the filterplate to filter the reaction mix through the membrane. • 9. Wash the filterplate with 8×200 μl of PBS, blot dry and dry in an oven for 30 minutes • 10. Add 50 μl of microscint-20 scintillation fluid (Perkin Elmer) to each well, wait 30 minutes and count on a liquid scintillation counter.
D. Data analysis • 1. IC50 values were determined by fitting the data to a 4-parameter IC50 equation using proprietary curve fitting software.
Wild type (WT) EZH2% Effect at 20 μM and IC50 values (μM) generated in WT EZH2 or EZH2PRC2 mutant Y641N nucleosome assays are provided in Table 3 below. A blank entry in the table indicates the data was not generated in that assay.

Setting [3] is: nucleosome assay, 5 nM EZH2 4-protein complex, 1.5 μM SAM, read-out: WT EZH2 IC50.

Each structure is given as a SMILES string. Read-outs that look alike come from different tables or passages of the source.

Sequence of WT EZH2 (EZH2 4 protein complex: EZH2, EED, SUZ12, RbAp48) (Q15910 whole entry): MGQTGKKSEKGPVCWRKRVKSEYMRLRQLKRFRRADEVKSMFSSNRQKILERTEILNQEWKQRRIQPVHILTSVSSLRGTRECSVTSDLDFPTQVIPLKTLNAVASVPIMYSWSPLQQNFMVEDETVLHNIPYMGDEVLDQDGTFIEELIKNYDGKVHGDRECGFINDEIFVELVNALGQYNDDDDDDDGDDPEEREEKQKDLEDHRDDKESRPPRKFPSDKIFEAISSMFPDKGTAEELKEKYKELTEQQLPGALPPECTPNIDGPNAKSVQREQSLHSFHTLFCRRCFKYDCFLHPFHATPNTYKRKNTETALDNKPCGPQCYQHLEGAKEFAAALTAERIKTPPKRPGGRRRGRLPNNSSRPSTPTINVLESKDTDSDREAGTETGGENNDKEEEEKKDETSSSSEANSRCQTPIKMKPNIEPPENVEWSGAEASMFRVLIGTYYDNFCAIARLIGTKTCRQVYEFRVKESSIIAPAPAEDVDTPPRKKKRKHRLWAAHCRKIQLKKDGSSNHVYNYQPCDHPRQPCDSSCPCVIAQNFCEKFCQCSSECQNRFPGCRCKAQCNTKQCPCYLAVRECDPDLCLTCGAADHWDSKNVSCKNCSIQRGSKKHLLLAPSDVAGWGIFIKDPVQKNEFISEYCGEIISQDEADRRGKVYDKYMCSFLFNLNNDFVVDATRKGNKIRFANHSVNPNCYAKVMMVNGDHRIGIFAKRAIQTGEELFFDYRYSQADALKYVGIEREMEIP
Sequence of WT EZH2 (EZH2 4 protein complex: EZH2, EED, SUZ12, RbAp48) (O75530 whole entry partner): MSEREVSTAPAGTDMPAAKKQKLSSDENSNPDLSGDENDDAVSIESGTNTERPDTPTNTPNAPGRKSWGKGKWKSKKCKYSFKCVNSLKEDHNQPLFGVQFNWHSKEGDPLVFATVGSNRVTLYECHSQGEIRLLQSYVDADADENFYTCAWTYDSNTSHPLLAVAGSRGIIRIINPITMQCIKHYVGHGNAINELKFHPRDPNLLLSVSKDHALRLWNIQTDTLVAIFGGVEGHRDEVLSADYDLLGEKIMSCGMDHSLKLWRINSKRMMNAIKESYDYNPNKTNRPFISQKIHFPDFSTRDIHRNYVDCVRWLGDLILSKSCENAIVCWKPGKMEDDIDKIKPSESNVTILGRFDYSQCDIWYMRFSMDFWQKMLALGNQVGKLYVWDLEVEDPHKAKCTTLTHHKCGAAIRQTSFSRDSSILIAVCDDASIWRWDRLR
Sequence of WT EZH2 (EZH2 4 protein complex: EZH2, EED, SUZ12, RbAp48) (Q15022 whole entry partner): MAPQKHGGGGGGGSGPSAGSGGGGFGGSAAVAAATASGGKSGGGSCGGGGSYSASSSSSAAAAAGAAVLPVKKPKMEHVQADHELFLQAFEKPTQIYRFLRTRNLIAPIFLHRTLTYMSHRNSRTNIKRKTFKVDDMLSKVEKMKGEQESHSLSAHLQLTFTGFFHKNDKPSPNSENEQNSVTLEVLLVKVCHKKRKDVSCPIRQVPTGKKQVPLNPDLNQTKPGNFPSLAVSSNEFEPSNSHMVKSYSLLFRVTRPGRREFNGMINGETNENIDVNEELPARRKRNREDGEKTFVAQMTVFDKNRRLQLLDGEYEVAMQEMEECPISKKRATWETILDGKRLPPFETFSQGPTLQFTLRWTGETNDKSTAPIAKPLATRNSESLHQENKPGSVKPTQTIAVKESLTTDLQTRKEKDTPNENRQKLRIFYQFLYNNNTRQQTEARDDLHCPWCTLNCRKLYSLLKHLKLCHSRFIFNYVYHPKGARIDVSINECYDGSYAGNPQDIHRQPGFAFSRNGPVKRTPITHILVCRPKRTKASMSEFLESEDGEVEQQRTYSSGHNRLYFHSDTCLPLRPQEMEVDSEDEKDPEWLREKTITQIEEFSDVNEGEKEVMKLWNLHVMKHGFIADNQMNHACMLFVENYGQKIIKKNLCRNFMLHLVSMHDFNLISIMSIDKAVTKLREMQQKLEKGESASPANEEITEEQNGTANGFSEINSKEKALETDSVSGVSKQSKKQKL
Sequence of WT EZH2 (EZH2 4 protein complex: EZH2, EED, SUZ12, RbAp48) (Q09028 whole entry partner): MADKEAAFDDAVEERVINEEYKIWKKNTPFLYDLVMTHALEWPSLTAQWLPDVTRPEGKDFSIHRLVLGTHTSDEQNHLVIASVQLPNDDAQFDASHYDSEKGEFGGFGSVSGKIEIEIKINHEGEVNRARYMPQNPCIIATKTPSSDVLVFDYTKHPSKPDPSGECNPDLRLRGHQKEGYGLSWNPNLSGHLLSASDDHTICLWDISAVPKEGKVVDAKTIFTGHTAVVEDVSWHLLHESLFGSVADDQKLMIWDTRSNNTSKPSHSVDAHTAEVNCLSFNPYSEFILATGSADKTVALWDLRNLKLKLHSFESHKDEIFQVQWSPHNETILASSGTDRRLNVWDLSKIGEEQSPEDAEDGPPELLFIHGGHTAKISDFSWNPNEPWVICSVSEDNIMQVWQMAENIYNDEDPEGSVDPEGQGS
Sequence of EZH2PRC2 mutant Y641N (Q15910 whole entry Y641N): as the sequence (Q15910 whole entry) above, with Y641N counted along it
Sequence of EZH2PRC2 mutant Y641N (O75530 whole entry partner): as the sequence (O75530 whole entry partner) above
Sequence of EZH2PRC2 mutant Y641N (Q15022 whole entry partner): as the sequence (Q15022 whole entry partner) above
Sequence of EZH2PRC2 mutant Y641N (Q09028 whole entry partner): as the sequence (Q09028 whole entry partner) above

`Cc1cc(C)c(CNC(=O)c2ncnc(N3[C@@H](C)COC[C@@H]3C)c2C)c(=O)[nH]1` [Example 89, 6-[(3S,5S)-3,5-dimethylmorph-olin-4-yl]-N-[(4,6-dimethyl-2-oxo-1,2-dihydropyridin-3-yl)methyl]-5-methylpyrimi-dine-4-carboxamide]: the IC50 in assay [1] (setting [3]) is 11 µM; in assay [2] it was 82.4 µM.
Take `CNc1ncc(-c2cc(C(=O)NCc3c(C)cc(C)[nH]c3=O)c(C)c(-c3c(C)cnn3C)c2)cn1` [Example 15, N-[(4,6-dimethyl-2-oxo-1,2-dihydropyridin-3-yl)methyl]-3-(1,4-dimethyl-1H-pyrazol-5-yl)-2-methyl-5-[2-(methylamino)pyrimidin-5-yl]benzamide]: the results for the 50% inhibitory concentration (IC50) in assay [1] and in assay [2] were 0.035 µM and 0.3 µM, respectively.
With `CCOc1cccc(C(=O)NCc2c(C)cc(C)[nH]c2=O)c1C` [Example 48, N-[(4,6-dimethyl-2-oxo-1,2-dihydropyridin-3-yl)methyl]-3-ethoxy-2-methyl-benzamide], the results for the half-inhibitory concentration (IC50) in assay [1] (setting [3]) and in assay [2] were 1.81 µM and 19.8 µM, respectively.
Take `Cc1cc(C)c(CNC(=O)c2nc(N3CCCC3)nc(N3CCC[C@@H]3C)c2C)c(=O)[nH]1` [Example 88, N-[(4,6-dimethyl-2-oxo-1,2-dihydropyridin-3-yl)methyl]-5-methyl-6-[(2S)-2-methylpyrroli-din-1-yl]-2-pyrrolidin-1-ylpyrimidine-4-carboxamide]: the IC50 in assay [1] (setting [3]) was determined as 9.82 µM; in assay [2] it was 34.8 µM.
The matching figures for `COCc1cc(C)[nH]c(=O)c1CNC(=O)c1cc(Cl)cc(-c2ccnn2C)c1C` [Example 50, 5-chloro-N-{[4-(methoxymeth-yl)-6-methyl-2-oxo-1,2-dihydropyridin-3-yl]methyl}-2-methyl-3-(1-methyl-1H-pyrazol-5-yl)benzamide]: 2.05 µM and 26.7 µM.
`Cc1cc(C)c(CNC(=O)c2cc(-c3cnc(N4CC(F)C4)nc3)cc(-c3c(C)cnn3C)c2C)c(=O)[nH]1` [Example 24, N-[(4,6-dimethyl-2-oxo-1,2-dihydropyridin-3-yl)methyl]-3-(1,4-dimethyl-1H-pyrazol-5-yl)-5-[2-(3-fluoroazetidin-1-yl)pyrimidin-5-yl]-2-methylbenzamide]: the IC50 in assay [1] (setting [3]) was 0.022 µM; in assay [2], 0.55 µM.
On the same counts, the results for `CCCc1cc(C)[nH]c(=O)c1CNC(=O)c1cc(-c2cnn(C)c2)cc(OC(C)C)c1Cl` [Example 27, 2-chloro-3-isopropoxy-N-[(6-methyl-2-oxo-4-propyl-1,2-dihydropyridin-3-yl)methyl]-5-(1-methyl-1H-pyrazol-4-yl)benzamide] are 0.29 µM and 5.15 µM.
Turning to `Cc1cc(C)c(CNC(=O)c2cccc(-c3ccnn3C)c2C)c(=O)[nH]1` [Example 2, N-[(4,6-dimethyl-2-oxo-1,2-dihydropyridin-3-yl)methyl]-2-methyl-3-(1-methyl-1H-pyrazol-5-yl)benzamide], the IC50 stood at 0.34 µM in assay [1] (setting [3]) and 5.53 µM in assay [2].
With `COc1cccc(C(=O)NCc2c(C)cc(C)[nH]c2=O)c1C` [Example 60, N-[(4,6-dimethyl-2-oxo-1,2-dihydropyridin-3-yl)methyl]-3-methoxy-2-methylbenz-amide], the IC50 in assay [1] (setting [3]) came out at 3.98 µM; in assay [2] it was 50.4 µM.
With `Cc1cc(C)c(CNC(=O)c2ccnc(N3CCC[C@H]3C)c2Cl)c(=O)[nH]1` [Example 106, 3-chloro-N-[(4,6-dimethyl-2-oxo-1,2-dihydropyridin-3-yl)methyl]-2-[(2R)-2-methylpyrrolidin-1-yl]isonicotin-amide], the IC50 in assay [1] (setting [3]) was determined as 19.8 µM; in assay [2], 86 µM.
Consider `CCn1ncc(C)c1-c1cccc(C(=O)NCc2c(C)c(Br)c(C)[nH]c2=O)c1C` [Example 147, N-[(5-bromo-4,6-dimethyl-2-oxo-1,2-dihydropyridin-3-yl)methyl]-3-(1-ethyl-4-methyl-1H-pyrazol-5-yl)-2-methylbenzamide], for which the IC50 in assay [1] (setting [3]) was 178 µM; in assay [2], above 200 µM.
On the same counts, the results for `Cc1cc(C)c(CNC(=O)c2cc(-c3ccc4c(c3)CS(=O)(=O)C4)cc(-c3ccnn3C)c2C)c(=O)[nH]1` [Example 35, N-[(4,6-dimethyl-2-oxo-1,2-dihydropyridin-3-yl)methyl]-5-(2,2-dioxido-1,3-dihydro-2-benzothien-5-yl)-2-methyl-3-(1-methyl-1H-pyrazol-5-yl)benzamide] are 0.042 µM and 0.35 µM.
In the case of `Cc1cc(C)c(CNC(=O)c2nc(Cl)nc(N3CCC[C@@H]3C)c2C)c(=O)[nH]1` [Example 41, 2-chloro-N-[(4,6-dimethyl-2-oxo-1,2-dihydropyridin-3-yl)methyl]-5-methyl-6-[(2S)-2-methylpyrrolidin-1-yl]pyrimidine-4-carboxamide], the IC50 amounted to 1.1 µM in assay [1] (setting [3]) and 7.81 µM in assay [2].
The matching figures for `Cc1cc(C)c(CNC(=O)c2cc(-c3cnc(N4C[C@@H]5C[C@H]4CO5)nc3)cc(-c3c(C)cnn3C)c2C)c(=O)[nH]1` [Example 22, N-[(4,6-dimethyl-2-oxo-1,2-dihydropyridin-3-yl)methyl]-3-(1,4-dimethyl-1H-pyrazol-5-yl)-2-methyl-5-{2-[(1S,4S)-2-oxa-5-azabicyclo[2.2.1]hept-5-yl]pyrimidin-5-yl}benzamide]: 0.027 µM and 0.75 µM.
On the same counts, the results for `Cc1cc(C)c(CNC(=O)c2ncnc(N3CCN(C)C[C@@H]3C)c2C)c(=O)[nH]1` [Example 67, N-[(4,6-dimethyl-2-oxo-1,2-dihydropyridin-3-yl)methyl]-6-[(2S)-2,4-dimethylpipera-zin-1-yl]-5-methylpyrimi-dine-4-carboxamide] are 4.93 µM and 23.5 µM.
For the compound `CCCc1cc(C)[nH]c(=O)c1CNC(=O)c1nc(C2CC2)nc(-c2ccnn2C)c1C` [Example 118, 2-cyclopropyl-5-methyl-N-[(6-methyl-2-oxo-4-propyl-1,2-dihydropyridin-3-yl)methyl]-6-(1-methyl-1H-pyrazol-5-yl)pyrimidine-4-carboxamide], the IC50 in assay [1] (setting [3]) amounted to 31.8 µM.
On the same count and under the same terms, then `Cc1cc(C)c(CNC(=O)c2cccc(-c3c(F)cnn3C)c2C)c(=O)[nH]1` [Example 11, N-[(4,6-dimethyl-2-oxo-1,2-dihydropyridin-3-yl)methyl]-3-(4-fluoro-1-methyl-1H-pyrazol-5-yl)-2-methylbenzamide], with 0.36 µM.
As for `CCOc1cccc(C(=O)NCc2c(C)cc(C)[nH]c2=O)c1F` [Example 134, N-[(4,6-dimethyl-2-oxo-1,2-dihydropyridin-3-yl)methyl]-3-ethoxy-2-fluoro-benzamide], in assay [1] (setting [3]), the IC50 came out at 127 µM.
As for `CC(=O)N[C@H]1CCN(c2ncnc(C(=O)NCc3c(C)cc(C)[nH]c3=O)c2C)C1` [Example 143, 6-[(3S)-3-azetamido-pyrrolidin-1-yl]-N-[(4,6-dimethyl-2-oxo-1,2-dihydropyridin-3-yl)methyl]-5-methylpyrimidine-4-carboxamide], the IC50 in assay [1] (setting [3]) was above 200 µM.
With `Cc1cc(C)c(CNC(=O)c2cccc(-n3cnnc3C)c2C)c(=O)[nH]1` [Example 111, N-[(4,6-dimethyl-2-oxo-1,2-dihydropyridin-3-yl)methyl]-2-methyl-3-(3-methyl-4H-1,2,4-triazol-4-yl)benzamide], in assay [1] (setting [3]), the IC50 is 24.8 µM.
`COC[C@H]1CCCN1c1ncnc(C(=O)NCc2c(C)cc(C)[nH]c2=O)c1C` [Example 131, N-[(4,6-dimethyl-2-oxo-1,2-dihydropyridin-3-yl)methyl]-6-[(2R)-2-(methoxymeth-yl)pyrrolidin-1-yl]-5-methylpyrimidine-4-carboxamide]: the IC50 in assay [1] (setting [3]) worked out at 77.8 µM.
Turning to `Cc1cc(C)c(CNC(=O)c2nc(N3CCCC3)nc(-c3ccnn3C)c2C)c(=O)[nH]1` [Example 92, N-[(4,6-dimethyl-2-oxo-1,2-dihydropyridin-3-yl)methyl]-5-methyl-6-(1-methyl-1H-pyrazol-5-yl)-2-pyrrolidin-1-ylpyrimidine-4-carboxamide], the IC50 in assay [1] (setting [3]) is 12.8 µM.
In the case of `Cc1cc(C(=O)NCc2c(C)cc(C)[nH]c2=O)c(C#N)c(OC(C)C)n1` [Example 99, 3-cyano-N-[(4,6-dimethyl-2-oxo-1,2-dihydropyridin-3-yl)methyl]-2-isopropoxy-6-methyliso-nicotinamide], in assay [1] (setting [3]), the IC50 worked out at 17.6 µM.
